Laboratory results: ChEMBL document CHEMBL1201862, “PubChem BioAssay data set” (2004)
Calls of active or inactive are those of the source.

Tests used:
[1] = biological target: Estrogen receptor beta (Homo sapiens, UniProt Q92731);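 note: recombinant ER-beta bound to coactivator SRC1 peptide in presence of estradiol agonist; inhibitors block coactivator peptide binding and lower the FRET signal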
[2] = biological target: T1, Estrogen receptor (Homo sapiens, UniProt P03372);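 note: potency for inhibiting coactivator peptide recruitment to the receptor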
T1 sequence (P03372 whole entry): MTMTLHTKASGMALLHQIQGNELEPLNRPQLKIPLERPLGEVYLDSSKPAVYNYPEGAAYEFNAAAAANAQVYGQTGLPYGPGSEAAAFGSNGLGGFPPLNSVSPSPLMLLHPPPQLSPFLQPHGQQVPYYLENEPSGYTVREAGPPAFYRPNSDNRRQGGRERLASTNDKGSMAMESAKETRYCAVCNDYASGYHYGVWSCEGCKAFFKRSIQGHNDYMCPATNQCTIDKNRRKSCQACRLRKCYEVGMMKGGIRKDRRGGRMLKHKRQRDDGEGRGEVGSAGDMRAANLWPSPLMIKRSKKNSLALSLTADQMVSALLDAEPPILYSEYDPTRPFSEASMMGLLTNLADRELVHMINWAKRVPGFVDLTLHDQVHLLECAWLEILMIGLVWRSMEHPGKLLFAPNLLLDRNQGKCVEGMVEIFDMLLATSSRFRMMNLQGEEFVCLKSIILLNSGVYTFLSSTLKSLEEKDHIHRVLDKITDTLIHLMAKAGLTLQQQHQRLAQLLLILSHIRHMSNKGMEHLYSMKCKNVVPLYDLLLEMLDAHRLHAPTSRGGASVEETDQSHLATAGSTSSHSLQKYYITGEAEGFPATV

[3] = biological target: Large T antigen (Simian virus 40, UniProt P03070); type: functional, Betapolyomavirus macacae;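 note: Confirmatory-stage PubChem screen for compounds that inhibit SV40 T antigen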
[4] = cytotoxicity in HEK-293T cells, dose response, cytotoxicity control for BCR NF-kB inhibitor project, luminescence, B-cell screen hits (AID 489021); type: functional, cell-based;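 note: HEK-293T cells carrying an NF-kB luciferase reporter; cells exposed to compound for about 14 hours before viability readout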
[5] = cytotoxicity in HEK-293T cells, dose response, cytotoxicity control for TCR NF-kB inhibitor project, luminescence, T-cell screen hits (AID 489026); type: functional, cell-based;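 note: cells exposed to compound about 14 hours before the viability readout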
[6] = A Cell Based Secondary Assay To Explore Cytotoxicity of Compounds that Sensitize Mycobacterium Tuberculosis to Beta-Lactam Antibiotics.; type: functional
[7] = biological target: Cytochrome P450 3A4 (Homo sapiens, UniProt P08684);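 note: CYP3A4 tested as one member of a cytochrome P450 panel screen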
[8] = biological target: Genome polyprotein (dengue virus type 2, UniProt P29990); assay: Dengue-2 NS5 methyltransferase inhibitors, primary screen, biochemical, confirmation dose response (AID 588689); type: functional
[9] = biological target: Induced myeloid leukemia cell differentiation protein Mcl-1 (Homo sapiens, UniProt Q07820); type: functional
[10] = Vero E6 cell cytotoxicity, dose response, cytotoxicity control for non-replicating M. tuberculosis project, secondary assay (AID 492998); type: functional, VeroE6; conditions: Vero C1008
[11] = microbe, parasite or virus in culture; type: functional; conditions: Mycobacterium tuberculosis
[12] = cells; type: functional
[13] = THP-1 cell cytotoxicity, dose response, cytotoxicity control for non-replicating M. tuberculosis project (AID 489025); type: functional
[14] = biological target: Glucose-6-phosphate 1-dehydrogenase (Homo sapiens, UniProt P11413); assay: human G6PD enzyme inhibitors, dose response, selectivity assay for P. falciparum G6PD inhibitor project, biochemical, fluorescence (AID 504792); type: functional
[15] = growth suppression of beta-catenin-knockout colon cells, dose response, cell-based, HCT116, human colon tumor (AID 1045); type: functional;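 note: HCT116 colon tumor cells with beta catenin knocked out; cells exposed to compound for 60 hours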
[16] = C. albicans growth with fluconazole, confirmation, fluorescence, retest (AID 2467); type: functional, cell-based
[17] = system: Vero; assay: cells; type: functional; conditions: Chlorocebus sabaeus
[18] = biological target: T2, Heat shock factor protein 1 (Mus musculus, UniProt P38532); assay: inhibition of MG132-induced HSE-luciferase signal, confirmation, cell-based, NIH3T3, luminescence, dose retest (AID 2382); type: functional;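 note: NIH3T3 fibroblasts with HSF1-driven luciferase reporter stressed by proteasome inhibitor MG132; luminescence from HSF1-driven luciferase expression after 8 hours of MG132 stress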
T2 sequence (P38532 whole entry): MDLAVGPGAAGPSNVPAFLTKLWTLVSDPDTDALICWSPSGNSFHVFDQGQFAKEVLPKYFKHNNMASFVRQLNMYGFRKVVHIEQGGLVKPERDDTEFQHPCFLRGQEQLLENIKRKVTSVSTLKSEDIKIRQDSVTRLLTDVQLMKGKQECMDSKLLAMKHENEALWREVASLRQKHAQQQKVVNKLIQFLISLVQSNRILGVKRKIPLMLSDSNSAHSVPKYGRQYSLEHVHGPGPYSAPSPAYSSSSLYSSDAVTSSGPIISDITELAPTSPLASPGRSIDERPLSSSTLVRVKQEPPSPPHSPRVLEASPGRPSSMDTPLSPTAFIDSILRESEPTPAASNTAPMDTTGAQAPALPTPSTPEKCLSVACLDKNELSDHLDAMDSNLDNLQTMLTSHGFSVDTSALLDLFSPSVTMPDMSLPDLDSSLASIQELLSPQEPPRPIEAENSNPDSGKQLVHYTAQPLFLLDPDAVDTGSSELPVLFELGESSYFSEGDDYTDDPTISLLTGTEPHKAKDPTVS

[19] = NIH-3T3 fibroblast cytotoxicity, dose response, cytotoxicity control, cell-based, fluorescence, Alamar Blue, secondary assay (AID 2327); type: functional;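 note: NIH-3T3 mouse fibroblasts cultured with fluconazole at 8 µg/mL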
[20] = growth suppression of PTEN-null colon cells, dose response, cell-based, HCT116 PTEN knockout (AID 1047); type: functional;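 note: HCT116 colon tumor cells with PTEN knocked out; cells exposed to compound for 60 hours before readout; potency for loss of cell viability measured by luminescence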

Sequence of Large T antigen (P03070 whole entry): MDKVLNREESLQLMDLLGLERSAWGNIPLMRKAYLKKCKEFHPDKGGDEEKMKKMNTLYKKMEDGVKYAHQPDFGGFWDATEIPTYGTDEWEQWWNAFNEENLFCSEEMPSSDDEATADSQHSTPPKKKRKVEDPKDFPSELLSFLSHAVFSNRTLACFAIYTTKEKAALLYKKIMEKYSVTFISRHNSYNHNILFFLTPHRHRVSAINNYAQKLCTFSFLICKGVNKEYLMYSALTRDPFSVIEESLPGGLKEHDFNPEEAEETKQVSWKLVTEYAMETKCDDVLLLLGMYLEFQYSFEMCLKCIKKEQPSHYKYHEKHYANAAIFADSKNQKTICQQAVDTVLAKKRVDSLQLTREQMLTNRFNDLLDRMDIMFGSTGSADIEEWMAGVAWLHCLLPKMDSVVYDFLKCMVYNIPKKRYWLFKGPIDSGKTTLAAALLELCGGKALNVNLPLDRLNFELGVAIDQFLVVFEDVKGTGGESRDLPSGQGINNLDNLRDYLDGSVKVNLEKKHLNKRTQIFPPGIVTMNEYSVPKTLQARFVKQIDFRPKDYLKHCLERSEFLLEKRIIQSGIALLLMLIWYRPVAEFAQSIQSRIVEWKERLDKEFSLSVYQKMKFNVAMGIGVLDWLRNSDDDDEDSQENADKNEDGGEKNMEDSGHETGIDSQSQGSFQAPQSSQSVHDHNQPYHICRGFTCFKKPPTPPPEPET
Sequence of Induced myeloid leukemia cell differentiation protein Mcl-1 (Q07820 whole entry): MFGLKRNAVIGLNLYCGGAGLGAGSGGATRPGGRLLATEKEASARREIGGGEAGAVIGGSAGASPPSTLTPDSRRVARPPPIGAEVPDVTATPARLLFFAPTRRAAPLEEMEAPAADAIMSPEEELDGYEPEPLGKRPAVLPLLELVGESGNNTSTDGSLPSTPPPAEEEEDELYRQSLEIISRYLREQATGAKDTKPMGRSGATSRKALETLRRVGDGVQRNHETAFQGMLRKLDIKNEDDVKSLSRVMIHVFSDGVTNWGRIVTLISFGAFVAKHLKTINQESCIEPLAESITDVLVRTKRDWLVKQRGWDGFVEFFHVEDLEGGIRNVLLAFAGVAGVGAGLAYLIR
Sequence of Glucose-6-phosphate 1-dehydrogenase (P11413 whole entry): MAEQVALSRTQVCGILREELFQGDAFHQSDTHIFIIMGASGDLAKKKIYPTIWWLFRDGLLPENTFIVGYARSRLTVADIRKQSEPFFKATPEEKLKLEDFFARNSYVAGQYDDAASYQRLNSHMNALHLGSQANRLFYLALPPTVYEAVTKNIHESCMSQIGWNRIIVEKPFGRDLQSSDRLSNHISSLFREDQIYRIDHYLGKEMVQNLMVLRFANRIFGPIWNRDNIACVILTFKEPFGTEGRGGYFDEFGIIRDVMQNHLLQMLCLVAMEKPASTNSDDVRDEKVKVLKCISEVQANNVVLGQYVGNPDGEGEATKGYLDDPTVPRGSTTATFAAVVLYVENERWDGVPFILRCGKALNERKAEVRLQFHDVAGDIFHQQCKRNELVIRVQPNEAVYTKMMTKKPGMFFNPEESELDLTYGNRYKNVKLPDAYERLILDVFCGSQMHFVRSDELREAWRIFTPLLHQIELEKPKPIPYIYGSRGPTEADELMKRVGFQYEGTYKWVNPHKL
Sequence of Genome polyprotein (P29990 2492-3391 limits assumed): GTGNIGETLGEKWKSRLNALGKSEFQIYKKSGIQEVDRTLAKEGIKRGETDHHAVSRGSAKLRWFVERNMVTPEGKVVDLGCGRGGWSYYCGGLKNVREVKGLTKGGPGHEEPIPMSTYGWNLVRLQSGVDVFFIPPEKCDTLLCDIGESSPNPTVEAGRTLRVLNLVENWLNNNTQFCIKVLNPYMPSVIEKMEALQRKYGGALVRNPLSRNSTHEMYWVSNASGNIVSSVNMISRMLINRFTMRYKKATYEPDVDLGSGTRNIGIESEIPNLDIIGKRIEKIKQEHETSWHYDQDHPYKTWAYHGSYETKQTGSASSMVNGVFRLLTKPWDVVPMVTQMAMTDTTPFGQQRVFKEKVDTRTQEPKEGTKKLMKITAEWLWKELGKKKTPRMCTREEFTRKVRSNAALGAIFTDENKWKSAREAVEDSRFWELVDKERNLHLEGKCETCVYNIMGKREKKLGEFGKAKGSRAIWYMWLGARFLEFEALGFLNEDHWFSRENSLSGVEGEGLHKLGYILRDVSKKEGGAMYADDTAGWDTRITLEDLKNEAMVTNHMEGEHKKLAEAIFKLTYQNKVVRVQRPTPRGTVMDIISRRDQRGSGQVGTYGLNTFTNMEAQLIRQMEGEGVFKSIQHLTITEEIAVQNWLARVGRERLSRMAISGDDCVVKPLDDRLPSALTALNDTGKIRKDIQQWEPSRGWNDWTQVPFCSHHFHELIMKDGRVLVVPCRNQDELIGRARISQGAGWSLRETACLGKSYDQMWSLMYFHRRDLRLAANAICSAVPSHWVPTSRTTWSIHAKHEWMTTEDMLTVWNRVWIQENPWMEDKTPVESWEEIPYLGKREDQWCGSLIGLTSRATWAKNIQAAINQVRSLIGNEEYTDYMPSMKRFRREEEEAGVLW
Sequence of Cytochrome P450 3A4 (P08684 whole entry): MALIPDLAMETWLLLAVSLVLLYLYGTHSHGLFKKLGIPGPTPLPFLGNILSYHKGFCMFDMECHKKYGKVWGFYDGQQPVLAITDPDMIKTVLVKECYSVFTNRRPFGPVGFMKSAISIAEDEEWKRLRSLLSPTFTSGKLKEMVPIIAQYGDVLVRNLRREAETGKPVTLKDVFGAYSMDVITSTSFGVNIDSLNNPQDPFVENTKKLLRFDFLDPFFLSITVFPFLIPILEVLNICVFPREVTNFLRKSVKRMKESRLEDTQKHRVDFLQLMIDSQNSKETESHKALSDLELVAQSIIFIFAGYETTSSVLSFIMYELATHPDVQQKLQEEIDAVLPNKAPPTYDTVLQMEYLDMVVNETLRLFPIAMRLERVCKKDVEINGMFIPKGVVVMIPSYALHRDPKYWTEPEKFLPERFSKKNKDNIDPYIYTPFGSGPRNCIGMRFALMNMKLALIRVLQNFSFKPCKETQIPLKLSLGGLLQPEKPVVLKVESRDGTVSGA
Sequence of Estrogen receptor beta (Q92731 whole entry): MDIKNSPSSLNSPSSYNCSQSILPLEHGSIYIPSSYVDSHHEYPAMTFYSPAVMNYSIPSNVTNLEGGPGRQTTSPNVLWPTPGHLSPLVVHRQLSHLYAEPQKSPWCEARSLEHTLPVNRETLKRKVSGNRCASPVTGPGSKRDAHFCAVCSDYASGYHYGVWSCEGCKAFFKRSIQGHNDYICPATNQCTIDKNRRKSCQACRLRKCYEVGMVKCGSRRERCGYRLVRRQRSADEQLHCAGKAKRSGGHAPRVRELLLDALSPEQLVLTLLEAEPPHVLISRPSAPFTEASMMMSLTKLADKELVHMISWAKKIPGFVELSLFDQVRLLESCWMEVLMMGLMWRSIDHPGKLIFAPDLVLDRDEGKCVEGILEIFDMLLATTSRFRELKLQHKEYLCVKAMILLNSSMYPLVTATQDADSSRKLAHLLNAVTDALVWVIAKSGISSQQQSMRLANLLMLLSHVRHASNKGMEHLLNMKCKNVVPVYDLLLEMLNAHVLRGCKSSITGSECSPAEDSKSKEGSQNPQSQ

Which IC50 [1] does the source give for Oc1ccc(/C=N/c2ccc(N3CCOCC3)cc2)c(O)c1 here?
The IC50 was 14.4 µM (active).

What about the IC50 [2] of the same molecule?
The IC50 was 30.4 µM (not active).

What about the IC50 [3] of the same molecule?
Its IC50 is 12.9 µM (active).

Which IC50 [4] does the source give for Cc1cc(C)cc(OCc2nnc(SCC(=O)c3ccccc3)o2)c1 here?
Its IC50 is > 80 µM (inactive).

Which IC50 [5] does the source give for COc1ccccc1CNS(=O)(=O)c1ccc(-c2cnc(C3CC3)o2)cc1 here?
Its IC50 is > 80 µM (inactive).

For Cc1cccc(NC(=O)Cn2c(=O)n(Cc3ccccc3)c(=O)c3c(C)c(C)sc32)c1, which CC50 [6] is on record?
The CC50 was > 40 µM (active).

With COc1cc2nc(N3CCN(C(=O)c4ccco4)CC3)nc(N)c2cc1OC [PRAZOSIN] as the molecule, how does the AC50 [7] read?
Its AC50 is “inconclusive”.

For CCOC(=O)Cc1csc(NC(=S)NC(=O)c2ccc(C)cc2)n1, which IC50 [4] is on record?
Its IC50 is > 80 µM (inactive).

With COC(=O)C1=C(C(=O)OC)C(c2cc(Cl)ccc2O)c2sc(O)nc2S1 (stereo unspecified) as the molecule, how does the IC50 [8] read?
The IC50 was > 100 µM (active).

What about the IC50 [9] of the same molecule?
Its IC50 is 4.4 µM (active).

Which CC50 [6] does the source give for Nc1c(C(=O)N2CCCC2)sc2nc3c(cc12)CCCCCC3 here?
The CC50 was > 40 µM (active).

Which results are given for CC(C)Cn1c([N+](=O)[O-])nc2c1c(=O)[nH]c(=O)n2C?
IC50 [4]: 47.3 µM (inactive); CC50 [10]: 14.6 µM (active); CC50 [11]: 12.4 µM (active); IC50 [12]: 5.98 µM (active); CC50 [13]: 9.18 µM (active); IC50 [14]: > 80 µM (inactive)

Which results are given for O=C1Nc2ccccc2/C1=C/C(=O)c1cccs1?
EC50 [15]: 5.7 µM (active); EC50 [16]: 1.75 µM (active); CC50 [10]: 14.4 µM (active); CC50 [17]: 17.6 µM (active); EC50 [18]: > 195 µM (not active); IC50 [12]: 8.52 µM (active); EC50 [19]: > 150 µM (inactive); CC50 [13]: 21.1 µM (active); EC50 [20]: 7.47 µM (active)
